Assay results from patent publication US10537608B2, “Adiponectin peptidomimetics for treating ocular disorders” (Allysta Pharmaceuticals, Inc., priority 2015, dated 2020).
Primed or numbered codes have the meaning given here. Where no end group is shown, it is not given here. [ ]: non-standard residue; d: D form. Dab′ = 2,3-diamino butyric acid; Nva = CCC[C@H](N)C(=O)O

Columns and labels:
Assay type in all cases: in vivo, C57BL/6 mice
[1] = test system: Experimental dry eye (EDE) mice; assay: Corneal fluorescein staining in experimental dry eye mice (Example 4); details: single treatment, topical; D5 and D10
Protocol: Experimental dry eye (EDE) was induced in 8-week old female C57BL/6 mice by subcutaneous injection of 0.5 mg/0.2 mL scopolamine hydrobromide (Sigma-Aldrich, St. Louis, Mo.) three times a day (9 AM 0.3 mL, 1:30 PM 0.3 mL, and 6:00 PM 0.3 mL). The mice were also exposed to an air draft and 30% ambient humidity. Five experimental groups used in this study included: (1) untreated control mice (UT; no dry eye treatment and no topical treatment); (2) EDE control mice received a balanced salt solution (BSS); (3) EDE mice received ADP 355 0.1% (single chain adiponectin peptidomimetic (ADP 355) in BSS); (4) EDE mice received Lifitegrast 5%; and (5) EDE mice received 0.1% peptide adiponectin peptidomimetic (ADP 355) in BSS+Lifitegrast 5%. […] Mice were evaluated at baseline, day 5 and day 10 after the treatment initiation.
Experiment 2—Corneal staining: The purpose of the corneal staining assay was to evaluate damage to the cornea epithelia in the murine EDE subject either as a consequence of inducing dry eye or due to treatment with 0.1% ADP 355 or with Lifitegrast 5% alone or with the combination of 0.1% ADP 355+Lifitegrast 5%. […] Corneal staining was assessed in four quadrants using a 4-point scale with 16 being the maximum score.
Briefly, fluorescein dye (1 μï) was instilled into the eye and then the eye was washed with saline. […] The average score from the five regions was recorded. […]

[2] = test system: Experimental dry eye (EDE) mice; assay: Corneal fluorescein staining in experimental dry eye mice (Example 3); details: 0.01% in BSS; for corneal staining (corneal irregularity) compared to untreated EDE mice: topical 3 times a day, score 0-4, day 5 and day 10, p-value<0.05 vs. EDE; for corneal surfaces compared to untreated normal mice (UT) and positive control gAdipo-treated mice: topical, EDE mice
Protocol: (§1) Experimental dry eye (EDE) was induced in 8-week old female C57BL/6 mice by subcutaneous injection of 0.5 mg/0.2 mL scopolamine hydrobromide (Sigma-Aldrich, St. Louis, Mo.) three times a day (9 AM, 1:30 PM and 6 PM). A dose of 0.3 mL scopolamine hydrobromide was administered at each injection. The mice were also exposed to an air draft and 30% ambient humidity. 6 experimental groups used in this study included: (1) untreated control mice (UT; no dry eye treatment and no topical treatment); (2) untreated EDE control mice (EDE; received no topical administration); (3) EDE control mice received a balanced salt solution (BSS); (4) EDE mice received 0.01% single chain adiponectin peptidomimetic (ADP355) in BSS; (5) EDE mice receiving 0.01% peptide dimer adiponectin peptidomimetic (ADP399) in BSS; and (6) EDE mice receiving 0.01% recombinant globular adiponectin (gAdipo) in BSS. Each group included 5 mice. EDE mice treated with BSS received topical bilateral administration of 2 μï/eye, 3 times a day. EDE mice treated with ADP355 received topical bilateral administration of 2 μï/eye, 3 times a day. EDE mice treated with ADP-399 received topical bilateral administration of 2 μï/eye, 3 times a day. The gAdipo treated mice served as a positive treatment control. Mice were evaluated at baseline, day 5 and day 10 after the treatment initiation. In some experiments, ADP355, ADP-399 and gAdipo were resuspended in 0.01% BSA.
The severity of corneal epithelial damage was evaluated by corneal fluorescein staining. Briefly, 1% fluorescein dye (1 μï) was instilled into the eye and then the eye was washed with saline. 10 minutes after application of the dye, the eye was photographed with a slip lamp microscope using a cobalt blue light. The stained area was graded using a scoring system by two blinded observers. […] The average score from the five regions was recorded. […] In addition, the adiponectin peptidomimetic-treated mice (ADP355 and ADP-399) had corneal surfaces that were similar to those of untreated normal mice (UT) and positive control globular adiponectin-treated mice (gAdipo). The corneal surface scores in all groups at day 10 were similar to those at day 5 after treatment initiation.

[3] = test system: Experimental dry eye (EDE) mice; assay: Tear volume by phenol red thread tear test in experimental dry eye mice (Example 3); details: 0.01% in BSS; for tear production, as measured by tear volume, compared to untreated or BSS treated EDE mice: topical 2 μl/eye 3 times a day, day 5 and day 10, p-value<0.05 vs. EDE; for difference in tear volume among those treated with ADP355, ADP399 and globular adiponectin: topical, EDE mice
Protocol: as §1
Tear volume was measured using a phenol red thread tear test. Briefly, a cotton thread treated with phenol red at its tip (Zone-Quick; Oasis, Glendora, Calif.) was held with jeweler's forceps and placed in the tear meniscus of the lateral canthus for 20 sees to contact tear fluid. Using a microscope, the length of the red portion (wet portion) of the thread was measured in millimeters. A standard curve was derived to convert the distance measurement into tear volume.

Row | Compound | corneal disruptions resulting from induced dry eye (corneal staining grade) vs untreated eyes (BSS) [1] | corneal staining (corneal irregularity) compared to untreated EDE mice [2] | corneal surfaces compared to untreated normal mice (UT) and positive control gAdipo-treated mice [2] | tear production, as measured by tear volume, compared to untreated or BSS treated EDE mice [3] | difference in tear volume among those treated with ADP355, ADP399 and globular adiponectin [3]
1 | CS(=O)(=O)c1cccc(C[C@H](NC(=O)c2c(Cl)cc3c(c2Cl)CCN(C(=O)c2ccc4ccoc4c2)C3)C(=O)O)c1 [Lifitegrast, reference compound] | improved corneal disruptions | – | – | – | –
2 | (DAsn-Ile-Pro-Nva-Leu-Tyr-DSer-Phe-Ala-DSer-His-Pro)2-Dab-NH2 ([dN]IP[Nva]LY[dS]FA[dS]HP[Dab′]-NH2; also: branched dimer: two chains joined via C-terminal Dab) [ADP399, linear branched dimer of ADP355] | – | less corneal staining | similar | higher | no significant difference
3 | DAsn-Ile-Pro-Nva-Leu-Tyr-DSer-Phe-Ala-DSer-NH2 ([dN]IP[Nva]LY[dS]FA[dS]-NH2; N-terminus assumed; SMILES CCC[C@H](NC(=O)[C@@H]1CCCN1C(=O)[C@@H](NC(=O)[C@H](N)CC(N)=O)[C@@H](C)CC)C(=O)N[C@@H](CC(C)C)C(=O)N[C@@H](Cc1ccc(O)cc1)C(=O)N[C@H](CO)C(=O)N[C@@H](Cc1ccccc1)C(=O)N[C@@H](C)C(=O)N[C@H](CO)C(N)=O) [ADP355, single chain adiponectin peptidomimetic] | improved corneal disruptions | less corneal staining | similar | higher | no significant difference
